pEC50: −log10 of the molar value. Structures can show the parent of a compound that is named as a salt.
Key:
[1] = test system: NMDA-induced seizure and death in mice; test: NMDA-induced seizure and death (100 mg/kg NMDA challenge); type: in vivo; conditions: steroid 25 mg/kg i.p., DMSO 50%
Description: 5β3αHS (25 mg/kg, i.p.) protects mice from NMDA-induced death. None of the steroids tested altered the latency to NMDA-induced seizure. However, 100% of the animals that received 5β3αHS survived the 100 mg/kg NMDA challenge compared to 50% for DMSO, 75% for 5β3αS and E2 (3)HS, and 50% for E2 (17)HS.

[2] = test system: NMDA-induced cell death in primary neuronal cultures of rat hippocampal formation; test: Trypan blue exclusion, NMDA-induced cell death (excitotoxicity) in primary hippocampal cultures; type: cell-based
From the text: Trypan blue exclusion was used to evaluate the ability of derivatives of pregnenolone sulfate to inhibit NMDA-induced cell death in primary neuronal cultures of rat hippocampal formation.
Mixed neuronal and glial cultures of hippocampal tissue were derived from fetal rats on day 18 of embryonic development and were maintained in culture for 16 to 24 days (Brewer, G. J., Brain Res., 494: 65-74 (1989)). Care for the animals used in this study was in accordance with institutional guidelines. Hippocampal tissue from Sprague-Dawley rat pups was collected immediately following removal from dams sacrificed with CO2 on embryonic day 18. Cells were dissociated by trituration in Ca^2 +/Mg^2 + free Hank's basic salt solution supplemented with 4.2 mM bicarbonate, 1 mM sodium pyruvate, 20 mM HEPES, 3 mg/ml BSA, and pelleted by centrifugation (900 rpm, 3 min). The resulting pellet was suspended in DMEM supplemented with 2.4 mg/ml BSA, 26.5 mM sodium bicarbonate, 1 mM sodium pyruvate, 20 mM HEPES, 10% FBS, 100 units/ml penicillin, 100 μg/ml streptomycin, and a modification of Brewers B16 defined components (with […] vitamin B12 and without catalase, glutathione, and superoxide dismutase) (Pike, C. J., et al., Neurosci. 13:1676-87 (1993)) and plated onto poly-L-lysine coated 24 well culture dishes (Nunclon) at a density of 15,000 cells/cm^2 and were maintained in a humidified incubator in 5% CO2 /95% air at 37° C. After 5 days in vitro, nonneuronal cell division was inhibited by exposure to 2×10^-6 M cytosine arabinoside for 48 hrs. Cells were subsequently maintained in medium identical to that used for platting without BSA or FBS.
The number of living neurons was determined by assessing the ability of cells to exclude trypan blue 16 hrs. after the addition of drug solutions to the medium of individual culture wells (Dawson, V. L., et al., Proc. Natl. Acad. Sci. USA, 88:6368-6371 (1991)). Drugs were introduced to cultures in 100 μl of conditioned media, collected from experimental cultures just prior to treatment, to a final volume of 0.5 ml. NMDA was dissolved in DMEM at concentrations of 0-5 mM so that addition of 10 μl yielded final concentrations of 0-100 μM. MK-801, a positive control, was dissolved in DMEM at a concentration of 1 mM so that addition of 5 μl yielded a final concentration of 10 μM. Control cultures were exposed only to an equivalent volume of DMEM, and concentration of DMSO (0.5%). The concentrations of the pregnenolone sulfate derivatives were as follows: 10-100 μM 5β3αS, 100 μM 5β3α hemisuccinate and 200 μM 17β-estradiol hemisuccinate.
After exposure to drugs, the medium was replaced by 0.1 M sodium phosphate buffer/0.4% trypan blue. Cell death was assessed by counting the number of trypan blue positive and negative neurons in five high power fields per culture well with an inverted phase contrast microscope using both bright field and phase settings. Cell death is expressed as the ratio of the number of trypan blue positive to total number of cells counted in each well×100 (percent cell death).

[3] = test system: NMDA receptor; test: Electrophysiology, NMDA response in rat hippocampal neurons; type: cell-based; conditions: FIG. 4; average of 6 experiments
Description: Experiments were carried out in 35-mm tissue culture dishes on the stage of an inverted phase contrast microscope. Whole cell currents were recorded by the whole cell variant of the patch clamp technique (Hamill, O. P., et al., Pfagers Arch. 891:85-100 (1981)). Patch electrodes had tip openings of about […] and resistances of 3-8 M.OMEGA. using an intracellular solution comprised of the following (in mM): 140 CsCl, 11 EGTA, and 10 HEPES (pH adjusted to 7.2 with CsOH). In experiments in which a high concentration of glycine was used, the intracellular solution was replaced with a low chloride (10 mM) pipette solution. This solution contained the following (in mM): 140 potassium gluconate, 10 KCl, 8 sodium gluconate, 11 EGTA, and 10 HEPES (pH adjusted to 7.2 with KOH). […]
The degree of modulation of the amino acid response by steroid, the percentage change, is expressed as [(I'/I)-1]×100%, where I is the average of control responses obtained from the same cell before application and after washout of steroid and I' is the agonist-induced current in the presence of steroid. Throughout, results are expressed as mean±S.E.; statistical comparison of groups was carried out using Student's t test.
The electrophysiology of additional pregnenolone derivatives were analyzed as described in Example 1. […]

[4] = test system: NMDA receptor; conditions: Wu et al. 1991, cited from earlier work

Row | Structure (SMILES) | animals that survived the 100 mg/kg NMDA challenge [1] [%] | protection against chronic NMDA-induced cell death ([2]; 10-100 μM 5β3αS, FIG. 5) | protection against short term NMDA excitotoxicity ([2]; 10-100 μM 5β3αS, FIG. 5) | block of cell death due to NMDA ([2]; steroid present during the exposure only) | block of cell death due to NMDA ([2]; steroid present only after the exposure) | % inhibition of NMDA response in rat hippocampal cells [3] | inhibition of the cell death induced by chronic NMDA ([2]; 100 μM 5β3α hemisuccinate) [%] | inhibition of the cell death produced by short term exposure to NMDA ([2]; 100 μM 5β3α hemisuccinate) [%] | potentiation of the NMDA response [4] [%] | pEC50 ([4]; read-out: EC50 for potentiation of the NMDA response)
1 | CC(=O)[C@H]1CC[C@H]2[C@@H]3CC[C@@H]4C[C@H](OS(=O)(=O)O)CC[C@]4(C)[C@H]3CC[C@]12C [5β3αS, 3α-hydroxy-5β-pregnan-20-one sulfate] | 75 | ineffective against chronic NMDA-induced cell death | protects against short term NMDA excitotoxicity | completely blocked the cell death | considerably less effective | – | – | – | – | –
2 | CC(=O)[C@H]1CC[C@H]2[C@@H]3CC[C@@H]4C[C@H](OC(=O)CCC(=O)O)CC[C@]4(C)[C@H]3CC[C@]12C [5β3αHS, 3α-hydroxy-5β-pregnan-20-one hemisuccinate] | 100 | – | – | – | – | approximately 20% | 50 | 46 | – | –
3 | CC(=O)C1CCC2C3CC=C4CC(OS(=O)(=O)O)CCC4(C)C3CCC12C (centres unmarked) [PS, pregnenolone sulfate] | – | – | – | – | – | – | – | – | 197 | 4.24

— patent US6083941A, “Inhibition of NMDA receptor activity by pregnenolone sulfate derivatives” (Trustees of Boston University, priority 1998, dated 2000)
